Source: publication PMC3213090, “Phytophthora sojae Avirulence Effector Avr3b is a Secreted NADH and ADP-ribose Pyrophosphorylase that Modulates Plant Immunity” (PLoS Pathogens, 2011)

Tests used:
FLAG:AtNUDT7 = target: T1, FLAG:AtNUDT7 (Arabidopsis thaliana, UniProt Q9SU14); test: phosphate release coupled to calf alkaline phosphatase, molybdate A820; format: biochemical; conditions: 2 mM substrate, 5 mM MgCl2, 1 mM DTT, pH 8.5, 37 C; immunoprecipitate, not homogeneous
T1 construct: gene NUDT7; FLAG tag fused; Nicotiana benthamiana transient expression, anti-FLAG immunoprecipitated, eluted
T1 sequence (Q9SU14 1-282): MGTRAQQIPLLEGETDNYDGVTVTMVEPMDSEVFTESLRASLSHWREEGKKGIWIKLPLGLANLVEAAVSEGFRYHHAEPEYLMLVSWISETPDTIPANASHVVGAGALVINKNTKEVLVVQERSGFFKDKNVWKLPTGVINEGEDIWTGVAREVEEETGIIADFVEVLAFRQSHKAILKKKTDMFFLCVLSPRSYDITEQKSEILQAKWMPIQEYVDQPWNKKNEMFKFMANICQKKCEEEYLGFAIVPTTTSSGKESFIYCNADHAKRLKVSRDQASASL

[1] = target: T2, FLAG:Avr3b^P6497 (Avh307^P6497) (Phytophthora sojae, UniProt E0W4V8); test: as above; format: biochemical; conditions: 2 mM substrate, 5 mM MgCl2, 1 mM DTT, pH 8.5, 37 C; immunoprecipitate, not homogeneous
T2 construct: gene Avh; signal peptide replaced by N-terminal FLAG tag; 34-35 kDa; precursor 315 residues; Nicotiana benthamiana agroinfiltration (PVX vector pGR107), anti-FLAG immunoprecipitated, 3xFLAG eluted
T2 sequence (E0W4V8 entry or part of it): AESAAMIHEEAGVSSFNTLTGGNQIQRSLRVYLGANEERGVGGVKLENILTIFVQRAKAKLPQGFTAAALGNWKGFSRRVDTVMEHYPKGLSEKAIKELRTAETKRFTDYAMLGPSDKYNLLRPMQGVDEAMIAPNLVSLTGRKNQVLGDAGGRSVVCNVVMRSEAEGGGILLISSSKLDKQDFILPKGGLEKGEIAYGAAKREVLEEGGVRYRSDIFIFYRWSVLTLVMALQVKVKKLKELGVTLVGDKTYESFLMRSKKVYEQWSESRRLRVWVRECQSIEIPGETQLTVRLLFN

| Compound | relative hydrolase activity (ratio over GFP) (FLAG:AtNUDT7) | relative hydrolase activity (ratio over GFP) [1] |
| --- | --- | --- |
| Nc1ncnc2c1ncn2[C@@H]1O[C@H](COP(=O)(O)OP(=O)(O)OC[C@H]2OC(O)[C@H](O)[C@@H]2O)[C@@H](O)[C@H]1O (stereo partly shown) [ADP-ribose] | FLAG:AtNUDT7 and FLAG:Avr3b^P6497 immunoprecipitates could both hydrolyze ADPR and NADH | FLAG:AtNUDT7 and FLAG:Avr3b^P6497 immunoprecipitates could both hydrolyze ADPR and NADH |
| NC(=O)C1=CN([C@@H]2O[C@H](COP(=O)(O)OP(=O)(O)OC[C@H]3O[C@@H](n4cnc5c(N)ncnc54)[C@H](O)[C@@H]3O)[C@@H](O)[C@H]2O)C=CC1 [NADH] | FLAG:AtNUDT7 and FLAG:Avr3b^P6497 immunoprecipitates could both hydrolyze ADPR and NADH | FLAG:AtNUDT7 and FLAG:Avr3b^P6497 immunoprecipitates could both hydrolyze ADPR and NADH |
